Measured values as given in the supplement of paper PMC11061612.

Key:
Assay in all cases: Bliss excess, mean over the matrix (fraction); higher = more synergy
[1] = system: RT-112 (Bladder Carcinoma)
Outline: (§1)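 Bliss excess equals the observed combination effect minus the expected value EA + EB − EA·EB, where EA and EB are the effects of each agent alone. Combination Emax is the second-highest inhibition within the matrix. Inhibition was scaled from CellTiter-Glo 2.0 luminescence, with 0 set by vehicle wells and 1 by blank wells, after 72 hours of two-drug dosing of cells plated in 1536-well plates.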

[2] = system: 639-V (Bladder Carcinoma)
Outline: as §1

Mewo (Melanoma) = system: Mewo (Melanoma)
Outline: as §1

[3] = system: HCC-15 (Squamous Cell Lung Carcinoma)
Outline: as §1

[4] = system: SUP-T1 (T-Lymphoblastic Leukemia)
Outline: as §1

[5] = system: MHH-PREB-1 (B-Cell Non-Hodgkin's Lymphoma)
Outline: as §1

[6] = system: K5 (Thyroid Gland Carcinoma)
Outline: as §1

[7] = system: LoVo (Colorectal Carcinoma)
Outline: as §1

NB14 (Neuroblastoma) = system: NB14 (Neuroblastoma)
Outline: as §1

[8] = system: Hs-633T (Other Solid Carcinomas)
Outline: as §1

NCI-H28 (Mesothelioma) = system: NCI-H28 (Mesothelioma)
Outline: as §1

HMV-II (Melanoma) = system: HMV-II (Melanoma)
Outline: as §1

[9] = system: UMC-11 (Other Solid Carcinomas)
Outline: as §1

[10] = system: SU-DHL-6 (B-Cell Non-Hodgkin's Lymphoma)
Outline: as §1

[11] = system: RKO (Colorectal Carcinoma)
Outline: as §1

[12] = system: TE-4 (Esophageal Squamous Cell Carcinoma)
Outline: as §1

NCI-H2461 (Mesothelioma) = system: NCI-H2461 (Mesothelioma)
Outline: as §1

[13] = system: SW1116 (Colorectal Carcinoma)
Outline: as §1

[14] = system: HDLM-2 (Hodgkin's Lymphoma)
Outline: as §1

[15] = system: HARA (Squamous Cell Lung Carcinoma)
Outline: as §1

SMILES | Bliss excess [1] | Bliss excess [2] | Bliss excess (Mewo (Melanoma)) | Bliss excess [3] | Bliss excess [4] | Bliss excess [5] | Bliss excess [6] | Bliss excess [7] | Bliss excess (NB14 (Neuroblastoma)) | Bliss excess [8] | Bliss excess (NCI-H28 (Mesothelioma)) | Bliss excess (HMV-II (Melanoma)) | Bliss excess [9] | Bliss excess [10] | Bliss excess [11] | Bliss excess [12] | Bliss excess (NCI-H2461 (Mesothelioma)) | Bliss excess [13] | Bliss excess [14] | Bliss excess [15]
NC1(C(=O)N[C@@H](CCO)c2ccc(Cl)cc2)CCN(c2ncnc3[nH]ccc23)CC1 [Capivasertib] + C[C@@H]1COCCN1C2=NC(=NC(=C2)C3(CC3)[S@](=N)(=O)C)C4=C5C=CNC5=NC=C4 [AZD6738] (first compound max 10 µM, 7x7, partner max 10 µM) | -0.0698 | -0.0134 | -0.0968 | -0.0459 | -0.0503 | -0.0486 | -0.0693 | -0.0575 | -0.032 | -0.0002 | -0.0702 | -0.0717 | 0.0252 | 0.0023 | -0.0207 | -0.0349 | -0.0866 | -0.011 | -0.0451 | -0.0719
Cc1cc2ncnn2cc1Nc1ncc2c(n1)n(C1CCOCC1)c(=O)n2C [AZD7648] + CCN(CCO)CCCOc1ccc2c(Nc3cc(CC(=O)Nc4cccc(F)c4)[nH]n3)ncnc2c1 [AZD2811] (first compound max 10 µM, 7x7, partner max 1 µM) | 0.0796 | 0.0219 | 0.0082 | 0.0043 | 0.11 | 0.0617 | 0.0013 | -0.0126 | -0.0603 | 0.0211 | 0.0016 | -0.0368 | -0.0884 | 0.0052 | 0.0369 | 0.0096 | -0.0105 | 0.012 | -0.0457 | 0.017
CCc1c2c(nc3ccc(O)cc13)-c1cc3c(c(=O)n1C2)COC(=O)[C@]3(O)CC [SN-38] + CN(C)CCCOc1ccc(-c2ccc3ncc4c(c3c2)n(C2CCOCC2)c(=O)n4C)cn1 [AZD0156] (first compound max 0.3 µM, 7x7, partner max 1 µM) | 0.0988 | 0.068 | -0.0722 | 0.16 | -0.0214 | 0.0408 | -0.0797 | 0.0135 | 0.0191 | 0.153 | -0.0839 | -0.0108 | 0.0224 | -0.0694 | 0.0263 | 0.0185 | -0.0236 | -0.0108 | -0.0809 | 0.112
C[C@@H]1COCCN1c1cc(C2([S@](C)(=N)=O)CC2)nc(-c2ccnc3[nH]ccc23)n1 [AZD6738] + O=C(c1cc(Cc2n[nH]c(=O)c3ccccc23)ccc1F)N1CCN(C(=O)C2CC2)CC1 [Olaparib] (first compound max 10 µM, 7x7, partner max 10 µM) | -0.0643 | 0.0684 | -0.0368 | 0.0025 | -0.0289 | -0.0405 | -0.0175 | -0.0084 | -0.0072 | 0.0221 | 0.011 | -0.0296 | 0.0266 | -0.0124 | 0.0101 | 0.0082 | -0.0214 | -0.0228 | -0.0437 | 0.033
CC1(C)CCC(CN2CCN(c3ccc(C(=O)NS(=O)(=O)c4ccc(NCC5CCOCC5)c([N+](=O)[O-])c4)c(Oc4cnc5[nH]ccc5c4)c3)CC2)=C(c2ccc(Cl)cc2)C1 [Venetoclax] + C[C@@H](Nc1cc(F)cc(F)c1)c1cc(C(=O)N(C)C)cc2c(=O)cc(N3CCOCC3)oc12 [AZD8186] (first compound max 1 µM, 7x7, partner max 3 µM) | -0.0197 | 0.0371 | 0.0083 | 0.0109 | -0.0402 | -0.0297 | -0.111 | 0.029 | -0.0644 | -0.017 | -0.0502 | 0.0093 | -0.0263 | 0.0547 | -0.049 | -0.0315 | 0.0092 | -0.0358 | 0.122 | 0.0144
C[C@@H](c1ccc2nccn2c1)n1nnc2ncc(-c3cnn(C)c3)nc21 [Savolitinib] + CC1(C)CCC(CN2CCN(c3ccc(C(=O)NS(=O)(=O)c4ccc(NCC5CCOCC5)c([N+](=O)[O-])c4)c(Oc4cnc5[nH]ccc5c4)c3)CC2)=C(c2ccc(Cl)cc2)C1 [Venetoclax] (first compound max 1 µM, 7x7, partner max 1 µM) | -0.046 | -0.112 | -0.0647 | -0.0229 | -0.0456 | -0.0286 | -0.0374 | -0.0394 | -0.0082 | -0.0383 | -0.0481 | -0.0621 | -0.0303 | 0.0481 | -0.05 | -0.009 | -0.0641 | -0.0595 | -0.0465 | -0.031
COc1cccc2c1C(=O)c1c(O)c3c(c(O)c1C2=O)C[C@@](O)(C(=O)CO)C[C@@H]3O[C@H]1C[C@H](N)[C@H](O)[C@H](C)O1 [Doxorubicin] + Cc1cc2ncnn2cc1Nc1ncc2c(n1)n(C1CCOCC1)c(=O)n2C [AZD7648] (first compound max 1 µM, 7x7, partner max 10 µM) | 0.151 | 0.117 | 0.0082 | 0.0127 | 0.0368 | 0.0891 | 0.0319 | 0.0105 | 0.0203 | 0.118 | -0.0177 | 0.062 | 0.07 | 0.0697 | 0.0473 | -0.0039 | -0.0108 | -0.0046 | 0.0106 | 0.0915
NC1(C(=O)N[C@@H](CCO)c2ccc(Cl)cc2)CCN(c2ncnc3[nH]ccc23)CC1 [Capivasertib] + CCN(CCO)CCCOc1ccc2c(Nc3cc(CC(=O)Nc4cccc(F)c4)[nH]n3)ncnc2c1 [AZD2811] (first compound max 10 µM, 7x7, partner max 1 µM) | -0.0152 | 0.0193 | 0.0228 | -0.0366 | 0.0016 | -0.0306 | -0.0379 | -0.0387 | -0.03 | 0.0136 | -0.0484 | -0.0457 | -0.0195 | 0.0406 | -0.0055 | 0.0241 | -0.0811 | -0.0435 | 0.0228 | 0.0137
COc1cccc(OCCCN)c1-c1cc(Nc2cnc(C#N)cn2)n[nH]1 [Prexasertib] + CN(C)CCCOc1ccc(-c2ccc3ncc4c(c3c2)n(C2CCOCC2)c(=O)n4C)cn1 [AZD0156] (first compound max 1 µM, 7x7, partner max 1 µM) | 0.0134 | 0.0592 | 0.0034 | -0.0156 | -0.0707 | -0.0167 | -0.0339 | 0.0116 | -0.033 | -0.0151 | -0.0307 | -0.0143 | -0.0236 | 0.0382 | -0.014 | -0.0049 | -0.0647 | -0.0253 | -0.0727 | -0.0038
NC1(C(=O)N[C@@H](CCO)c2ccc(Cl)cc2)CCN(c2ncnc3[nH]ccc23)CC1 [Capivasertib] + CC(C)n1c(=O)n(C)c2cnc3cc(F)c(-c4ccc(OCCCN5CCCCC5)nc4)cc3c21 [AZD1390] (first compound max 10 µM, 7x7, partner max 0.3 µM) | -0.0581 | -0.0376 | -0.0597 | -0.0608 | -0.0615 | -0.0353 | -0.0539 | -0.043 | -0.0269 | -0.0656 | -0.0776 | -0.0435 | -0.0807 | -0.0071 | -0.0429 | -0.0233 | -0.0579 | -0.0335 | -0.0002 | -0.0216
Cc1c2c(nn1C)CSCc1cc(n(C)n1)CSc1cc(c3ccccc3c1)OCCCc1c(C(=O)O)n(C)c3c-2c(Cl)ccc13 [AZD5991] + C=CCn1c(=O)c2cnc(Nc3ccc(N4CCN(C)CC4)cc3)nc2n1-c1cccc(C(C)(C)O)n1 [AZD1775] (first compound max 1 µM, partner max 1 µM) | 0.0566 | 0.0854 | -0.0347 | 0.001 | 0.0028 | 0.0023 | -0.0391 | -0.064 | -0.0137 | -0.0399 | -0.0023 | 0.0001 | -0.0732 | -0.0152 | -0.0002 | 0.0115 | 0.0081 | 0.005 | 0.0055 | 0.0014
COc1cccc(OCCCN)c1-c1cc(Nc2cnc(C#N)cn2)n[nH]1 [Prexasertib] + Cc1cc2ncnn2cc1Nc1ncc2c(n1)n(C1CCOCC1)c(=O)n2C [AZD7648] (first compound max 1 µM, 7x7, partner max 10 µM) | -0.0357 | -0.0051 | -0.0079 | 0.0328 | -0.0536 | -0.0322 | -0.0405 | -0.0687 | -0.0047 | 0.0201 | -0.0397 | 0.0203 | -0.0692 | 0.0159 | -0.0193 | -0.003 | -0.0428 | -0.0183 | -0.0934 | -0.0085
CN(CCO)CC[C@H](CSc1ccccc1)Nc1ccc(S(=O)(=O)NC(=O)c2ccc(N3CCC([C@@H](O)c4ccccc4-c4ccc(Cl)cc4)CC3)cc2)cc1S(=O)(=O)C(F)(F)F [AZD4320] + Cn1cnc2c(F)c(Nc3ccc(Br)cc3Cl)c(C(=O)NOCCO)cc21 [Selumetinib] (first compound max 1 µM, 7x7, partner max 3 µM) | 0.113 | 0.22 | 0.0374 | 0.0827 | -0.0462 | 0.0272 | -0.0637 | 0.0195 | 0.0033 | -0.0329 | 0.0103 | 0.0015 | -0.0068 | -0.0145 | 0.0229 | 0.0025 | 0.0248 | 0.0737 | 0.0231 | 0.0265
CCN(CCO)CCCOc1ccc2c(Nc3cc(CC(=O)Nc4cccc(F)c4)[nH]n3)ncnc2c1 [AZD2811] + O=C(c1cc(Cc2n[nH]c(=O)c3ccccc23)ccc1F)N1CCN(C(=O)C2CC2)CC1 [Olaparib] (first compound max 1 µM, 7x7, partner max 10 µM) | 0.0427 | 0.0445 | -0.0112 | -0.0123 | 0.0208 | 0.0032 | 0.0162 | -0.0452 | -0.0384 | 0 | -0.0383 | -0.0302 | -0.0715 | 0.0252 | 0.0655 | 0.0049 | -0.0638 | -0.0008 | -0.0224 | -0.0071
